Series [1] has as its target T1, aromatase (Homo sapiens, UniProt P11511).
T1 construct: gene CYP19A1; human placental aromatase cDNA (nucleotides 16-1539) stably expressed in MCF-7 cells (clone Arom. 1)
T1 sequence (P11511 1-503): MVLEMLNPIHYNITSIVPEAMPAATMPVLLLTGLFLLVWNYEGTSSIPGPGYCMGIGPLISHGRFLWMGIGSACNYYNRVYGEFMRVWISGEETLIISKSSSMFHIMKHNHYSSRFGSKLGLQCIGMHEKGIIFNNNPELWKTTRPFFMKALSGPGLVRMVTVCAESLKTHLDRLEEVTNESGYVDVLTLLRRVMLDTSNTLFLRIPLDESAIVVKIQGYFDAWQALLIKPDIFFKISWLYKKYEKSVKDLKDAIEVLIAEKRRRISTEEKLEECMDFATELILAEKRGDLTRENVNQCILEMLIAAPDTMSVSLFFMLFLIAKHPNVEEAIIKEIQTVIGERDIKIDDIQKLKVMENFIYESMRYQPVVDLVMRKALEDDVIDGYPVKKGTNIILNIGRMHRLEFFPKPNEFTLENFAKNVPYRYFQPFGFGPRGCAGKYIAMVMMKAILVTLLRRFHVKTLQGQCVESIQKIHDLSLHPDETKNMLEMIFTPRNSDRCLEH
Briefly: cell-based.

Substrate in series [2]: C[C@]12CCC(=O)C=C1CC[C@@H]1[C@@H]2CC[C@]2(C)C(=O)CC[C@@H]12
Briefly: cells, lysate or membranes.

In general, IC50 refers to the concentration at which inhibition is half-maximal. `C[C@]12CCC(=O)C(O)=C1CC[C@@H]1[C@@H]2CC[C@]2(C)C(=O)CC[C@@H]12` [4-hydroxyandrostenedione] displayed a 50% inhibitory concentration (IC50) in series [1] of 70 nM.

B1: aromatase (Homo sapiens) (protein)
chain: MVLEMLNPIHYNITSIVPEAMPAATMPVLLLTGLFLLVWNYEGTSSIPGPGYCMGIGPLISHGRFLWMGIGSACNYYNRVYGEFMRVWISGEETLIISKSSSMFHIMKHNHYSSRFGSKLGLQCIGMHEKGIIFNNNPELWKTTRPFFMKALSGPGLVRMVTVCAESLKTHLDRLEEVTNESGYVDVLTLLRRVMLDTSNTLFLRIPLDESAIVVKIQGYFDAWQALLIKPDIFFKISWLYKKYEKSVKDLKDAIEVLIAEKRRRISTEEKLEECMDFATELILAEKRGDLTRENVNQCILEMLIAAPDTMSVSLFFMLFLIAKHPNVEEAIIKEIQTVIGERDIKIDDIQKLKVMENFIYESMRYQPVVDLVMRKALEDDVIDGYPVKKGTNIILNIGRMHRLEFFPKPNEFTLENFAKNVPYRYFQPFGFGPRGCAGKYIAMVMMKAILVTLLRRFHVKTLQGQCVESIQKIHDLSLHPDETKNMLEMIFTPRNSDRCLEH
Broadly, the Km is the substrate concentration at which the rate is half of its maximum. Regarding B1, the Km in series [2] came to 0.07 µM.

The values above are taken from article PMC1968759, “Biological effects of stable overexpression of aromatase in human hormone-dependent breast cancer cells” (British Journal of Cancer, 1994).
